The first assay deals with Kuramochi cells labeled with mApple-H2B. Briefly: IncuCyte Cell Proliferation Assay. The format is cell-based. The conditions noted are these: 72 h. The method, then: IncuCyte® assay was used to measure the effect of disclosed compounds on cell proliferation. Fluorescent microscopy images of cells were taken immediately after compound treatment and 72 hours later. Image analysis software was used to obtain cell counts as a function of compound concentration. Kuramochi cells labeled with mApple-H2B were seeded on 384-well assay-ready plates. Plates were placed in an IncuCyte® (Sartorius) and scanned at 0 and 72 hours. IncuCyte® software was used to count the number of fluorescent nuclei in each well. The fold change in cell count from 0 to 72 hours in wells treated with increasing compounds concentrations (10 pts, ½ log dilution, 20 μM top concentration) was normalized to DMSO control wells. The normalized cell counts were fit with dose response curves and a […] was calculated.
`CNC(=O)[C@@H](NC(=O)[C@@H]1CN(C(=O)c2cncs2)CC12CN(C(=O)[C@H]1CC1(C)C)C2)[C@@H](C)OCC1CCC2(CC1)CC2` [I-355]: the IC50 (usually the midpoint of a concentration-inhibition curve) is at most 0.5 µM. The same measure, in the same setting: as for `C[C@@H](OCC1CCCCC1)[C@H](NC(=O)[C@@H]1CN(C(=O)c2cncs2)CC12CN(C(=O)[C@H]1CC1(C)C)C2)C(=O)N1CCOCC1` [I-198], the figure is at most 0.5 µM. Same read-out and setting: as for `COC[C@H]1CCCN(C(=O)CNC(=O)[C@@H]2CN(C(=O)c3cncs3)CC23CN(C(=O)[C@H]2CC2(C)C)C3)C1` [I-323], the figure is over 20 µM; as for `Cc1ccc(CNC(=O)[C@@H]2CN(C(=O)c3cnn(Cc4ccccc4)c3)CC23CN(C(=O)[C@H]2CC2(C)C)C3)nn1` [I-252], 5 to 20 µM; as for `C[C@@H](OCC1CCCCC1)[C@H](NC(=O)[C@@H]1CN(C(=O)c2cnn(Cc3ccccc3)c2)CC12CN(C(=O)[C@H]1CC1(C)C)C2)C(=O)O` [I-477], over 20 µM. Same read-out and setting: as for `COC[C@H]1CCCN(C(=O)[C@@H](NC(=O)[C@@H]2CN(C(=O)c3cncs3)CC23CN(C(=O)[C@H]2CC2(C)C)C3)[C@@H](C)OC[C@H]2CC[C@H](OC(F)(F)F)CC2)C1` [I-435], the figure is 0.5 to 5 µM; as for `C[C@@H](OCC1(C(F)(F)F)CC1)[C@H](NC(=O)[C@@H]1CN(C(=O)c2cncs2)CC12CN(C(=O)[C@H]1CC1(C)C)C2)C(=O)N1CCCCC1` [I-285], over 20 µM; as for `C[C@@H](OCC1CCCCC1)[C@H](NC(=O)[C@@H]1CN(C(=O)c2cnn(Cc3ccccc3)c2)CC12CN(C(=O)[C@H]1CC1(C)C)C2)C(=O)N1CCC(c2ccncc2)CC1` [I-300], at most 0.5 µM.

`C[C@@H](OCC1CC(F)(F)C1)[C@@H](CO)NC(=O)[C@@H]1CN(C(=O)c2cncs2)CC12CN(C(=O)[C@H]1CC1(C)C)C2` [I-412] had an IC50 of over 20 µM. Still for that read-out and setting: as for `CC1(C)C[C@@H]1C(=O)N1CC2(CN(C(=O)c3cncs3)C[C@H]2C(=O)NCc2cccc(C3CCCCC3)n2)C1` [I-414], the figure is 0.5 to 5 µM.

With `CC1(C)C[C@@H]1C(=O)N1CC2(CN(C(=O)c3cncs3)C[C@H]2C(=O)NC(c2cccc(C3CCOCC3)n2)C2CCCO2)C1` (stereo partly shown) [I-497], the IC50 was over 20 µM. The same measure, in the same setting: as for `[2H]C([2H])([2H])NC(=O)C(NC(=O)[C@@H]1CN(C(=O)c2cncs2)CC12CN(C(=O)[C@H]1CC1(C)C)C2)c1cccc(N2CCOCC2)n1` (stereo partly shown) [I-18], the figure is over 20 µM; as for `C[C@@H](OCC1(C(F)(F)F)CC1)[C@H](NC(=O)[C@H]1CN(C(=O)c2cncs2)CC12CN(C(=O)[C@H]1CC1(C)C)C2)C(=O)N1CCCCC1` [I-292], over 20 µM; as for `C[C@@H](OCC1CCCCC1)[C@H](NC(=O)[C@@H]1CN(C(=O)c2cnn(Cc3ccccc3)c2)CC12CN(C(=O)[C@H]1CC1(C)C)C2)C(=O)N1CCC(c2ncc[nH]2)CC1` [I-446], 0.5 to 5 µM. In the case of `C[C@@H](OCC1CCC(F)(F)CC1)[C@@H](COC1CCC(F)(F)CC1)NC(=O)[C@@H]1CN(C(=O)c2cncs2)CC12CN(C(=O)[C@H]1CC1(C)C)C2` [I-315], the IC50 is 0.5 to 5 µM. Same read-out and setting: as for `CC1(C)C[C@@H]1C(=O)N1CC2(CN(C(=O)c3cnn(Cc4ccccc4)c3)C[C@H]2C(=O)NCc2ccc(C(F)(F)F)nn2)C1` [I-392], the figure is over 20 µM; as for `C[C@@H](OCC1CCCCC1)[C@H](NC(=O)[C@@H]1CN(C(=O)c2cnn(Cc3ccccc3)c2)CC12CN(C(=O)[C@H]1CC1(C)C)C2)C(=O)N1CCC(c2cc[nH]n2)CC1` [I-443], at most 0.5 µM.

In turn, `C[C@@H](OCC1CCOCC1)[C@@H](COC1CCC(F)(F)CC1)NC(=O)[C@@H]1CN(C(=O)c2cncs2)CC12CN(C(=O)C(C)(C)C1CC1)C2` [I-333, (S)-2-(2-cyclopropyl-2-methylpropanoyl)-N-((2R,3R)-1-((4,4-difluorocyclohexyl)oxy)-3-((tetrahydro-2H-pyran-4-yl)methoxy)butan-2-yl)-6-(thiazole-5-carbonyl)-2,6-diazaspiro[3.4]octane-8-carboxamide] displayed an IC50 of 5 to 20 µM. `C[C@@H](OCC1CCC(F)(F)CC1)[C@H](NC(=O)[C@@H]1CN(C(=O)c2cncs2)CC12CN(C(=O)[C@H]1CC1(C)C)C2)C(C)(C)O` [I-313] had an IC50 of 0.5 to 5 µM. On the same count and under the same terms, the result for `Cc1nc(C)c(C(=O)N2C[C@@H](C(=O)NC(c3cccc(C4CCOCC4)n3)C(C)(C)O)C3(C2)CN(C(=O)[C@H]2CC2(C)C)C3)s1` (stereo partly shown) [I-437] reads over 20 µM; that for `C[C@@H](OCC1CCCCC1)[C@@H](COC1CCNCC1)NC(=O)[C@@H]1CN(C(=O)c2cncs2)CC12CN(C(=O)[C@H]1CC1(C)C)C2` [I-329], 0.5 to 5 µM; that for `C[C@@H](OCC1CCCCC1)[C@H](NC(=O)[C@@H]1CN(C(=O)c2cnn(Cc3ccccc3)c2)CC12CN(C(=O)[C@H]1CC1(C)C)C2)C(=O)N1CCC(n2cccn2)CC1` [I-439], at most 0.5 µM. Same read-out and setting: as for `CNC(=O)[C@@H](NC(=O)[C@@H]1CN(C(=O)c2cnn(Cc3ccccc3)c2)CC12CN(C(=O)[C@H]1CC1(C)C)C2)C1(OCC2CCCCC2)CC1` [I-396], the figure is 0.5 to 5 µM; as for `C[C@@H](OCC1CCOCC1)[C@H](NC(=O)[C@@H]1CN(C(=O)c2cncs2)CC12CN(C(=O)[C@H]1CC1(C)C)C2)C(=O)N1CCC(n2ccnc2)CC1` [I-440], over 20 µM; as for `C[C@@H](OCC1CCC(F)(F)CC1)[C@@H](COC1CCOCC1)NC(=O)[C@@H]1CN(C(=O)c2cncs2)CC12CN(C(=O)[C@H]1CC1(C)C)C2` [I-314], at most 0.5 µM. In the case of `CNC(=O)[C@@H](NC(=O)[C@@H]1CN(C(=O)c2cnn(Cc3ccccc3)c2)CC12CN(C(=O)[C@H]1CC1(C)C)C2)C(C)(C)OCc1ccccc1` [I-393], the IC50 was in the range of 5 to 20 µM. `C[C@@H](OCC1CCCCC1)[C@H](NC(=O)[C@@H]1CN(C(=O)c2cnn(Cc3ccccc3)c2)CC12CN(C(=O)[C@H]1CC1(C)C)C2)C(=O)N1CCC(c2cnc[nH]2)CC1` [I-438] came in with an IC50 of 0.5 to 5 µM. Still for that read-out and setting: as for `C[C@@H](OCC12CCC(CC1)OC2)[C@H](NC(=O)[C@@H]1CN(C(=O)c2cncs2)CC12CN(C(=O)[C@H]1CC1(C)C)C2)C(=O)N1CCC(OC(F)(F)F)CC1` [I-457], the figure is 0.5 to 5 µM; as for `CNC(=O)C(NC(=O)[C@@H]1CN(C(=O)c2cncs2)CC12CN(C(=O)[C@H]1CC1(C)C)C2)c1cccc(C2CCC(F)(F)CC2)n1` (stereo partly shown) [I-411], over 20 µM.

`Cc1ccc(CNC(=O)[C@@H]2CN(C(=O)c3cnn(Cc4ccncc4)c3)CC23CN(C(=O)[C@H]2CC2(C)C)C3)nn1` [I-418] had an IC50 of over 20 µM. On the same count and under the same terms, as for `C[C@@H](OC(C)(C)C1CCCCC1)[C@H](NC(=O)[C@@H]1CN(C(=O)c2cncs2)CC12CN(C(=O)[C@H]1CC1(C)C)C2)C(=O)N1CCCCC1` [I-395], the figure is 0.5 to 5 µM; as for `CNC(=O)C(NC(=O)[C@@H]1CN(C(=O)c2cncs2)CC12CN(C(=O)[C@H]1CC1(C)C)C2)c1ccc(C)nn1` (stereo partly shown) [I-420], over 20 µM. On the same count and under the same terms, the result for `CNC(=O)[C@@H](NC(=O)[C@@H]1CN(C(=O)c2cncs2)CC12CN(Cc1ccco1)C2)[C@@H](C)OCC12CCC(CC1)OC2` [I-349] reads over 20 µM. On the same count and under the same terms, the result for `C[C@@H](OCC1CCC(F)(F)CC1)[C@H](NC(=O)[C@@H]1CN(C(=O)c2cncs2)CC12CN(C(=O)[C@H]1CC1(C)C)C2)C(=O)N1CCC2(CC1)COC2` [I-335] reads 0.5 to 5 µM. Consider `CNC(=O)[C@@H](NC(=O)C1(F)CN(C(=O)c2cnn(Cc3ccccc3)c2)CC12CN(C(=O)[C@H]1CC1(C)C)C2)[C@@H](C)OCC1CCCCC1` (stereo partly shown) [I-501], for which the concentration for half-maximal inhibition (IC50) fell in the range of 0.5 to 5 µM. Regarding `CNC(=O)C(NC(=O)[C@@H]1CN(C(=O)c2cncs2)CC12CN(C(=O)C(C)(C)C1CC1)C2)c1cccc(C2CCOCC2)n1` (stereo partly shown) [I-338], the IC50 is over 20 µM. `C[C@@H](OCC1CCCCC1)[C@H](NC(=O)[C@@H]1CN(C(=O)c2cnn(Cc3ccccc3)c2)CC12CN(C(=O)[C@H]1CC1(C)C)C2)C(=O)NCCC(=O)OC(C)(C)C` [I-478] yielded an IC50 of at most 0.5 µM. The same measure, in the same setting: the result for `C[C@@H](OCC1CCC2(CCC2)CC1)[C@H](NC(=O)[C@@H]1CN(C(=O)c2cnn(Cc3ccccc3)c2)CC12CN(C(=O)[C@H]1CC1(C)C)C2)C(=O)N1CCC(c2cnc[nH]2)CC1` [I-444] reads at most 0.5 µM. Same read-out and setting: the result for `CNC(=O)[C@@H](NC(=O)[C@@H]1CN(C(=O)c2cnn(Cc3ccccc3)c2)CC12CN(C(=O)[C@H]1CC1(C)C)C2)[C@@H](C)OC[C@H]1CC[C@H](O)CC1` [I-413] reads over 20 µM.

For the compound `C[C@@H](OCC12CCC(CC1)OC2)[C@H](NC(=O)[C@@H]1CN(C(=O)c2cncs2)CC12CN(C(=O)C(C)(C)C1CC1)C2)C(C)(C)O` [I-334], the IC50 is over 20 µM. Same read-out and setting: as for `CC1(C)C[C@@H]1C(=O)N1CC2(CN(C(=O)c3cnn(Cc4ccccc4)c3)C[C@H]2C(=O)NC[C@H]2CC[C@@H](C)CC2)C1` [I-388], the figure is 0.5 to 5 µM; as for `C[C@@H](OCC1CCC(F)(F)CC1)[C@H](NC(=O)C1CN(C(=O)c2cncs2)CC12CN(C(=O)[C@H]1CC1(C)C)C2)C(=O)N1CCC(OC(F)(F)F)CC1` (stereo partly shown) [I-394], at most 0.5 µM; as for `COC[C@H]1CCCN(C(=O)[C@@H](NC(=O)[C@@H]2CN(C(=O)c3cncs3)CC23CN(C(=O)C(C)(C)C2CC2)C3)[C@@H](C)OCC2CCCCC2)C1` [I-389], 0.5 to 5 µM. On the same count and under the same terms, as for `C[C@@H](OCC1CCCCC1)[C@H](NC(=O)C1CN(C(=O)c2cnn(Cc3ccccc3)c2)CC12CN(C(=O)[C@H]1CC1(C)C)C2)C(=O)NCCC(=O)O` (stereo partly shown) [I-353], the figure is 5 to 20 µM.

Still in this assay, the particulars now being: 72 hours.
In turn, `COC[C@H]1CCCN(C(=O)[C@@H](NC(=O)[C@@H]2CN(C(=O)c3cncs3)CC23CN(C(=O)[C@H]2CC2(C)C)C3)[C@@H](C)O[C@@H](C)C2CCCCC2)C1` [I-467] showed an IC50 of 0.5 to 5 µM.

The test system of a further assay is Kuramochi cells. Briefly: BrdU Cell Proliferation Assay. The format is cell-based. The note with it: read-out: BrdU - KURAMOCHI.1: IC50. A digest of the protocol:
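Signal is 450 nm absorbance from a peroxidase anti-BrdU ELISA after a 1-hour BrdU label, background-subtracted and normalized to DMSO-treated wells. Kuramochi cells (2,000 per well) had been exposed to compound for 4 days. Dosing used a 10-point dose response in 3-fold steps.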
`CNC(=O)[C@@H](NC(=O)[C@@H]1CN(C(=O)c2cncs2)CC12CN(C(=O)[C@H]1CC1(C)C)C2)[C@@H](C)OCC1CCC2(CC1)CC2` [I-355]: the IC50 lay within 0.5 to 5 µM. The same measure, in the same setting: the result for `C[C@@H](OCC1CCCCC1)[C@H](NC(=O)[C@@H]1CN(C(=O)c2cncs2)CC12CN(C(=O)[C@H]1CC1(C)C)C2)C(=O)N1CCOCC1` [I-198] reads at most 0.5 µM.

Turning to `COC[C@H]1CCCN(C(=O)CNC(=O)[C@@H]2CN(C(=O)c3cncs3)CC23CN(C(=O)[C@H]2CC2(C)C)C3)C1` [I-323], the IC50 is over 10 µM. Turning to `Cc1ccc(CNC(=O)[C@@H]2CN(C(=O)c3cnn(Cc4ccccc4)c3)CC23CN(C(=O)[C@H]2CC2(C)C)C3)nn1` [I-252], the IC50 was in the range of 5 to 10 µM.

For the origin of these results see patent publication US12065445B2, “CDK2 inhibitors and methods of using the same” (Cedilla Therapeutics, Inc., priority 2021, dated 2024).
